From patent US20250145633A1, “SUBSTITUTED FURANOPYRIMIDINE COMPOUNDS AS PDE1 INHIBITORS” (Dart NeuroScience, LLC, priority 2017, published 2025)

Target: human PDE1B enzyme (Homo sapiens (Human), UniProt Q01064)
Experiment: IMAP TR-FRET PDE1B enzymatic assay
Format: biochemical
Conditions: negative log of half-maximal molar inhibitory concentration; 200 nM FAM-cAMP; values given as bins
In short: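 Full-length GST-tagged human PDE1B (250 pg/well) in IMAP BSA buffer with 10 U/ml calmodulin and 2.5 mM CaCl2; compound pre-incubated 5 min at room temperature, then 200 nM (final) FAM-cAMP for 30 min. IMAP binding reagent/Tb added, 1 h; TR-FRET 520/490 ratio read. IC50 from sigmoidal dose-response fit.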

Q: For `Cc1oc2ncnc(NC3(C)CC3)c2c1C(=O)N1CCC(c2ccc(C(F)F)cc2)C1` (stereo not shown) [Example 131, 5-{3-[4-(Difluoromethyl)phenyl]pyrrolidine-1-carbonyl}-6-methyl-N-(1-methylcyclopropyl)furo[2,3-d]pyrimidin-4-amine], which “PDE1b (pIC50)” value is on record?
A: >8

Q: With `COc1ccc(CNC(=O)c2c(C)oc3ncnc(NC4(C)CC4)c23)c(F)c1F` [Example 185, N-[(2,3-Difluoro-4-methoxyphenyl)methyl]-6-methyl-4-[(1-methylcyclopropyl)amino]furo[2,3-d]pyrimidine-5-carboxamide] as the compound, how does the “PDE1b (pIC50)” value read?
A: >8

Q: With `COc1ccc(C(C)NC(=O)c2c(C)oc3ncnc(NC4(C)CC4)c23)cc1` (stereo in doubt) [Example 560, N-[(1R)-1-(4-Methoxyphenyl)ethyl]-6-methyl-4-[(1-methylcyclopropyl)amino]furo[2,3-d]pyrimidine-5-carboxamide] as the compound, how does the “PDE1b (pIC50)” value read?
A: >8

Q: How did the “PDE1b (pIC50)” value turn out when `Cc1oc2ncnc(NC3(C)CC3)c2c1C(=O)N1CCC(c2ccc(C(N)=O)cc2)CC1` [Example 382, 4-(1-{6-Methyl-4-[(1-methylcyclopropyl)amino]furo[2,3-d]pyrimidine-5-carbonyl}piperidin-4-yl)benzamide] was run?
A: >8

Q: `CCCc1ccnc(C2CCN(C(=O)c3c(C)oc4ncnc(NC5(C)CC5)c34)CC2)n1` [Example 369, 6-Methyl-N-(1-methylcyclopropyl)-5-[4-(4-propylpyrimidin-2-yl)piperidine-1-carbonyl]furo[2,3-d]pyrimidin-4-amine] was tested. Which “PDE1b (pIC50)” value did it give?
A: >8

Q: Which “PDE1b (pIC50)” value does the source give for `COc1cnc(C2=CCN(C(=O)c3c(C)oc4ncnc(NC5(C)CC5)c34)CC2)cn1` [Example 784, 5-[4-(5-Methoxypyrazin-2-yl)-1,2,3,6-tetrahydropyridine-1-carbonyl]-6-methyl-N-(1-methylcyclopropyl)furo[2,3-d]pyrimidin-4-amine] here?
A: >8

Q: Which “PDE1b (pIC50)” value does the source give for `Cc1oc2ncnc(NC3(C)CC3)c2c1C(=O)NCc1nc2cc(F)ccc2o1` [Example 751, N-[(5-Fluoro-1,3-benzoxazol-2-yl)methyl]-6-methyl-4-[(1-methylcyclopropyl)amino]furo[2,3-d]pyrimidine-5-carboxamide] here?
A: >8

Q: For `CCOc1ncnc2c1CCN(C(=O)c1c(C)oc3ncnc(NC4(C)CC4)c13)C2` [Example 25, 5-{4-Ethoxy-5H,6H,7H,8H-pyrido[3,4-d]pyrimidine-7-carbonyl}-6-methyl-N-(1-methylcyclopropyl)furo[2,3-d]pyrimidin-4-amine], which “PDE1b (pIC50)” value is on record?
A: >8

Same assay, conditions: negative log of half-maximal molar inhibitory concentration; 200 nM FAM-cAMP; values given as bins; read-out: PDE1b (pIC50) (converted)

Q: How did the IC50 turn out when `Cc1oc2ncnc(NC3(C)CC3)c2c1C(=O)NCc1ccc[nH]1` [Example 98, 6-Methyl-4-[(1-methylcyclopropyl)amino]-N-(1H-pyrrol-2-ylmethyl)furo[2,3-d]pyrimidine-5-carboxamide] was run?
A: 10 to 100 nM

Q: For `Cc1oc2ncnc(NC3(C)CC3)c2c1C(=O)N1CCc2ccncc2C1` [Example 637, 6-Methyl-N-(1-methylcyclopropyl)-5-(1,2,3,4-tetrahydro-2 7-naphthyridine-2-carbonyl)furo[2,3-d]pyrimidin-4-amine], which IC50 is on record?
A: 100 to 1000 nM

Q: Which IC50 does the source give for `Cc1oc2ncnc(NC3(C)CC3)c2c1C(=O)N1CCn2cncc2C1` [Example 640, 5-{5H,6H,7H,8H-Imidazo[1,5-a]pyrazine-7-carbonyl}-6-methyl-N-(1-methylcyclopropyl)furo[2,3-d]pyrimidin-4-amine] here?
A: 100 to 1000 nM

Q: `Cc1oc2ncnc(NC3(C)CC3)c2c1C(=O)N1CCc2cc(O)ccc2C1` [Example 330, 2-{6-Methyl-4-[(1-methylcyclopropyl)amino]furo[2,3-d]pyrimidine-5-carbonyl}-1,2,3,4-tetrahydroisoquinolin-6-ol] was tested. Which IC50 did it give?
A: 10 to 100 nM

Q: `CCC1(NC(=O)c2c(C)oc3ncnc(NC4(C)CC4)c23)CCOCC1` [Example 140, N-(4-Ethyloxan-4-yl)-6-methyl-4-[(1-methylcyclopropyl)amino]furo[2,3-d]pyrimidine-5-carboxamide] was tested. Which IC50 did it give?
A: 10 to 100 nM

Q: How did the IC50 turn out when `Cc1oc2ncnc(NC3(C)CC3)c2c1C(=O)N1CCn2ncc(Br)c2C1` [Example 641, 5-{3-Bromo-4H,5H,6H,7H-pyrazolo[1,5-a]pyrazine-5-carbonyl}-6-methyl-N-(1-methylcyclopropyl)furo[2,3-d]pyrimidin-4-amine] was run?
A: 100 to 1000 nM

Q: `Cc1oc2ncnc(NC3(C)CC3)c2c1C(=O)NCc1ncc(C(F)F)cn1` [Example 706, N-{[5-(Difluoromethyl)pyrimidin-2-yl]methyl}-6-methyl-4-[(1-methylcyclopropyl)amino]furo[2,3-d]pyrimidine-5-carboxamide] was tested. Which IC50 did it give?
A: 10 to 100 nM

Q: Which IC50 does the source give for `COCCn1cc(NC(=O)c2c(C)oc3ncnc(NC4(C)CC4)c23)cn1` [Example 429, N-[1-(2-Methoxyethyl)-1H-pyrazol-4-yl]-6-methyl-4-[(1-methylcyclopropyl)amino]furo[2,3-d]pyrimidine-5-carboxamide] here?
A: 10 to 100 nM

Q: With `Cc1oc2ncnc(NC3(C)CC3)c2c1C(=O)NCc1nccn1C` [Example 715, 6-Methyl-N-[(1-methyl-1H-imidazol-2-yl)methyl]-4-[(1-methylcyclopropyl)amino]furo[2,3-d]pyrimidine-5-carboxamide] as the compound, how does the IC50 read?
A: 10 to 100 nM

Q: For `Cc1oc2ncnc(NC3(C)CC3)c2c1C(=O)N1C[C@@H]2C(c3ccccn3)[C@@H]2C1` (stereo partly drawn) [Example 30, 6-methyl-N-(1-methylcyclopropyl)-5-[(1R,5S,6S)-6-(pyridin-2-yl)-3-azabicyclo[3.1.0]hexane-3-carbonyl]furo[2,3-d]pyrimidin-4-amine], which IC50 is on record?
A: 10 to 100 nM

Q: With `Cc1oc2ncnc(NC3(C)CC3)c2c1C(=O)NCc1noc(C(F)(F)Cl)n1` [Example 626, N-{[5-(Chlorodifluoromethyl)-1,2,4-oxadiazol-3-yl]methyl}-6-methyl-4-[(1-methylcyclopropyl)amino]furo[2,3-d]pyrimidine-5-carboxamide] as the compound, how does the IC50 read?
A: 10 to 100 nM

Q: Which IC50 does the source give for `COc1cccc2c1OCCCN(C(=O)c1c(C)oc3ncnc(NC4(C)CC4)c13)C2` [Example 600] here?
A: 10 to 100 nM

Q: With `Cc1nc(CNC(=O)c2c(C)oc3ncnc(NC4(C)CC4)c23)cc(=O)[nH]1` [Example 662, 6-Methyl-N-[(2-methyl-6-oxo-1,6-dihydropyrimidin-4-yl)methyl]-4-[(1-methylcyclopropyl)amino]furo[2,3-d]pyrimidine-5-carboxamide] as the compound, how does the IC50 read?
A: 10 to 100 nM

Q: Which IC50 does the source give for `COc1ccccc1C(C)NC(=O)c1c(C)oc2ncnc(NC3(C)CC3)c12` (stereo in doubt) [Example 482, N-[(1S)-1-(2-Methoxyphenyl)ethyl]-6-methyl-4-[(1-methylcyclopropyl)amino]furo[2,3-d]pyrimidine-5-carboxamide] here?
A: 10 to 100 nM

Q: With `Cc1oc2ncnc(NC3(C)CC3)c2c1C(=O)NCc1ccncn1` [Example 652, 6-Methyl-4-[(1-methylcyclopropyl)amino]-N-(pyrimidin-4-ylmethyl)furo[2,3-d]pyrimidine-5-carboxamide] as the compound, how does the IC50 read?
A: 10 to 100 nM

Q: With `Cc1oc2ncnc(NC3(C)CC3)c2c1C(=O)NCc1nc2cc(F)ccc2[nH]1` [Example 729, N-[(5-Fluoro-1H-1,3-benzodiazol-2-yl)methyl]-6-methyl-4-[(1-methylcyclopropyl)amino]furo[2,3-d]pyrimidine-5-carboxamide] as the compound, how does the IC50 read?
A: 10 to 100 nM

Q: `COCCN1CCN(C(=O)c2c(C)oc3ncnc(NC4(C)CC4)c23)CC1` [Example 260, 5-[4-(2-Methoxyethyl)piperazine-1-carbonyl]-6-methyl-N-(1-methylcyclopropyl)furo[2,3-d]pyrimidin-4-amine] was tested. Which IC50 did it give?
A: 100 to 1000 nM

Q: Which IC50 does the source give for `Cc1nc(C)n2c1CN(C(=O)c1c(C)oc3ncnc(NC4(C)CC4)c13)CC2` [Example 814, 5-{1,3-Dimethyl-5H,6H,7H,8H-imidazo[1,5-a]pyrazine-7-carbonyl}-6-methyl-N-(1-methylcyclopropyl)furo[2,3-d]pyrimidin-4-amine] here?
A: 100 to 1000 nM

Q: With `Cc1oc2ncnc(NC3(C)CC3)c2c1C(=O)N1CCC(O)(c2ccccc2)C1` (stereo not shown) [Example 347, 1-{6-Methyl-4-[(1-methylcyclopropyl)amino]furo[2,3-d]pyrimidine-5-carbonyl}-3-phenylpyrrolidin-3-ol] as the compound, how does the IC50 read?
A: 10 to 100 nM

Q: For `COc1ccc(N2CCN(C(=O)c3c(C)oc4ncnc(NC5(C)CC5)c34)CC2)cc1` [Example 186, 5-[4-(4-Methoxyphenyl)piperazine-1-carbonyl]-6-methyl-N-(1-methylcyclopropyl)furo[2,3-d]pyrimidin-4-amine], which IC50 is on record?
A: 10 to 100 nM

Q: Which IC50 does the source give for `Cc1oc2ncnc(NC3(C)CC3)c2c1C(=O)N1CCc2nc(F)ncc2C1` [Example 303, 5-{2-Fluoro-5H,6H,7H,8H-pyrido[4,3-d]pyrimidine-6-carbonyl}-6-methyl-N-(1-methylcyclopropyl)furo[2,3-d]pyrimidin-4-amine] here?
A: 100 to 1000 nM

Q: For `Cc1oc2ncnc(NC3(C)CC3)c2c1C(=O)N1CCc2cccnc2C1` [Example 630, 6-Methyl-N-(1-methylcyclopropyl)-5-(5,6,7,8-tetrahydro-1,7-naphthyridine-7-carbonyl)furo[2,3-d]pyrimidin-4-amine], which IC50 is on record?
A: 10 to 100 nM

Q: For `Cc1ncc(NC(=O)c2c(C)oc3ncnc(NC4(C)CC4)c23)nc1C` [Example 441, N-(5,6-Dimethylpyrazin-2-yl)-6-methyl-4-[(1-methylcyclopropyl)amino]furo[2,3-d]pyrimidine-5-carboxamide], which IC50 is on record?
A: 10 to 100 nM

Q: How did the IC50 turn out when `Cc1oc2ncnc(NC3(C)CC3)c2c1C(=O)NCCc1cnc(C2CC2)nc1` [Example 693, N-[2-(2-Cyclopropylpyrimidin-5-yl)ethyl]-6-methyl-4-[(1-methylcyclopropyl)amino]furo[2,3-d]pyrimidine-5-carboxamide] was run?
A: 100 to 1000 nM

Q: How did the IC50 turn out when `Cc1oc2ncnc(NC3(C)CC3)c2c1C(=O)N1CCOC2(CCc3ccccc32)C1` (stereo not shown) [Example 378, 5-({2,3-Dihydrospiro[indene-1,2′-morpholine]-4′-yl}carbonyl)-6-methyl-N-(1-methylcyclopropyl)furo[2,3-d]pyrimidin-4-amine] was run?
A: 100 to 1000 nM

Q: `Cc1oc2ncnc(NC3(C)CC3)c2c1C(=O)NC1CC(F)(F)C1` [Example 128, N-(3,3-Difluorocyclobutyl)-6-methyl-4-[(1-methylcyclopropyl)amino]furo[2,3-d]pyrimidine-5-carboxamide] was tested. Which IC50 did it give?
A: 100 to 1000 nM
